Patent US12522583B2, “Benzimidazole derivatives and aza-benzimidazole derivatives as Janus kinase 2 inhibitors and uses thereof” (Dana-Farber Cancer Institute, Inc., priority 2018, dated 2026)

Experiments:
Test in all cases: KINOMEscan
Type in all cases: binding
Settings in all cases: read-out: percent control
ADCK3 = ADCK3 (Homo sapiens (Human), UniProt Q8NI60)
Source text: (§1) Example 2. In Vitro Kinase Selectivity Profiling of the Compounds of the Present Disclosure

ALK(L1196M) = ALK(L1196M) (Homo sapiens (Human), UniProt Q9UM73, L1196M)
Source text: as §1

BUB 1 = BUB 1 (Homo sapiens (Human), UniProt O43683)
Source text: as §1

CDK4 = CDK4 (Homo sapiens (Human), UniProt P11802)
Source text: as §1

CDK7 = CDK7 (Homo sapiens (Human), UniProt P50613)
Source text: as §1

CDKL2 = CDKL2 (Homo sapiens (Human), UniProt Q92772)
CDKL2, sequence (Q92772 whole entry): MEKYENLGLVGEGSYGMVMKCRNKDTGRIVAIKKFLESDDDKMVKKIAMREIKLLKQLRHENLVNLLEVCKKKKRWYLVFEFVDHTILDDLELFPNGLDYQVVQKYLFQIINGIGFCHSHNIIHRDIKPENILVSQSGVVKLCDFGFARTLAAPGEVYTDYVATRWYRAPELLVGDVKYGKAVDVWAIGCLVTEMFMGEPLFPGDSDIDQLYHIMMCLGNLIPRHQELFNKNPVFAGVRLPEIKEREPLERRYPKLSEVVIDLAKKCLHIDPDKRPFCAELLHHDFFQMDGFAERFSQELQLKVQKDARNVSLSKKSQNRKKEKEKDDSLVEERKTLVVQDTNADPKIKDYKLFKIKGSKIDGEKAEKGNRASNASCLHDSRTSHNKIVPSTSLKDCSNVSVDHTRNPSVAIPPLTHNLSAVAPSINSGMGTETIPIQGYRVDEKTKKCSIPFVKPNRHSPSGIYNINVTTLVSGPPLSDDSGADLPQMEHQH
Source text: as §1

CLK3 = CLK3 (Homo sapiens (Human), UniProt P49761)
CLK3, sequence (P49761 whole entry): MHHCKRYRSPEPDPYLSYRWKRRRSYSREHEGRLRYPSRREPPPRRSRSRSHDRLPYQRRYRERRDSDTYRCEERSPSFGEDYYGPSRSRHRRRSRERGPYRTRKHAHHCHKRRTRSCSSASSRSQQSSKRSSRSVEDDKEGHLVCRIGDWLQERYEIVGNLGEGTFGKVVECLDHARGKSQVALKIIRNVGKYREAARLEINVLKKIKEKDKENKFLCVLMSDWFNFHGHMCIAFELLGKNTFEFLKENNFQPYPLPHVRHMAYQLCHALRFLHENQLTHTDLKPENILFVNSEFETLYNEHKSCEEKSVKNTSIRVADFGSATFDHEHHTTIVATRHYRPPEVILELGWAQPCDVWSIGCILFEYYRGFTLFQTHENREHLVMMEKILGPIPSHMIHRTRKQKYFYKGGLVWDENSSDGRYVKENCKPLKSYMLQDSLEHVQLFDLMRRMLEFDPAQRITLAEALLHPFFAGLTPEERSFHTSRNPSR
Source text: as §1

CSF1R = CSF1R (Homo sapiens (Human), UniProt P07333)
Source text: as §1

DAPK1 = DAPK1 (Homo sapiens (Human), UniProt P53355)
DAPK1, sequence (P53355 whole entry): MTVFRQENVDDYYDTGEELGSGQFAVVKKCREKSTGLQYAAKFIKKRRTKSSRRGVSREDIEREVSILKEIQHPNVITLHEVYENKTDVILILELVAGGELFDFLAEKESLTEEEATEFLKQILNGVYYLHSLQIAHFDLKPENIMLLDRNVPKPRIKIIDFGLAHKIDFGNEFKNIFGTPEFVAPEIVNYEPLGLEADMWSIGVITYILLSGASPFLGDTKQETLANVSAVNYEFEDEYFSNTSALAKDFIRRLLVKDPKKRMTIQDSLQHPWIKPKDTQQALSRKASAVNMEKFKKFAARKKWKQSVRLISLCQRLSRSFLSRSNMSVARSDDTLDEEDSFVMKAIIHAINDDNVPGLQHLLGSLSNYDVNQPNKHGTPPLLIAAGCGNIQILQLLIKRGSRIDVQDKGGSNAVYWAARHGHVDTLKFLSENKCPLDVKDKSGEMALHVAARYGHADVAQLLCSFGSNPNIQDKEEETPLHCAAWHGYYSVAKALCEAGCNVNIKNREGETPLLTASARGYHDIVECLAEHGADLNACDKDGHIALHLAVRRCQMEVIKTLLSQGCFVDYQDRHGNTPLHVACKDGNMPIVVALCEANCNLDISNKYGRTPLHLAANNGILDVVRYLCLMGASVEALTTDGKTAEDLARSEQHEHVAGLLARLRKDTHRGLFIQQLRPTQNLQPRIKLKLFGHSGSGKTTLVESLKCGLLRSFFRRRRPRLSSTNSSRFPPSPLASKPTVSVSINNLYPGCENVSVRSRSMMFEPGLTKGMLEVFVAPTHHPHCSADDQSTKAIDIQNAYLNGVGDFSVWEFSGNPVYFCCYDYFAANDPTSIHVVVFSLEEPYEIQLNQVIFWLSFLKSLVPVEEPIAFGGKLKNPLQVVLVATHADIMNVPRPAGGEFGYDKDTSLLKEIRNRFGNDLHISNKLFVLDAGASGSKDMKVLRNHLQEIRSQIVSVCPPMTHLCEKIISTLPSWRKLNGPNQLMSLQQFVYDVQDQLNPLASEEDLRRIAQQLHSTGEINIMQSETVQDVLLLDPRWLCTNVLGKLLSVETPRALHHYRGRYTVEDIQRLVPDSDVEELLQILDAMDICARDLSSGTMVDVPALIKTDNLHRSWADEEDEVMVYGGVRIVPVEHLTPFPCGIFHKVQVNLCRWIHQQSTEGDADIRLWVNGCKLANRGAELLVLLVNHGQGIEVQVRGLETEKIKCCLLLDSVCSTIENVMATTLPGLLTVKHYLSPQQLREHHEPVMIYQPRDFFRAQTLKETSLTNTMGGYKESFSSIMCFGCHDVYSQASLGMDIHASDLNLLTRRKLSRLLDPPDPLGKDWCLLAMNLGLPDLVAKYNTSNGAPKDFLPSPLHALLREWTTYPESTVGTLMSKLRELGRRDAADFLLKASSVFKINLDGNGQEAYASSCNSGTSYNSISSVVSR
Source text: as §1

DCAMKL1 = DCAMKL1 (Homo sapiens (Human), UniProt O15075)
Source text: as §1

DYRK2 = DYRK2 (Homo sapiens (Human), UniProt Q92630)
DYRK2, sequence (Q92630 whole entry): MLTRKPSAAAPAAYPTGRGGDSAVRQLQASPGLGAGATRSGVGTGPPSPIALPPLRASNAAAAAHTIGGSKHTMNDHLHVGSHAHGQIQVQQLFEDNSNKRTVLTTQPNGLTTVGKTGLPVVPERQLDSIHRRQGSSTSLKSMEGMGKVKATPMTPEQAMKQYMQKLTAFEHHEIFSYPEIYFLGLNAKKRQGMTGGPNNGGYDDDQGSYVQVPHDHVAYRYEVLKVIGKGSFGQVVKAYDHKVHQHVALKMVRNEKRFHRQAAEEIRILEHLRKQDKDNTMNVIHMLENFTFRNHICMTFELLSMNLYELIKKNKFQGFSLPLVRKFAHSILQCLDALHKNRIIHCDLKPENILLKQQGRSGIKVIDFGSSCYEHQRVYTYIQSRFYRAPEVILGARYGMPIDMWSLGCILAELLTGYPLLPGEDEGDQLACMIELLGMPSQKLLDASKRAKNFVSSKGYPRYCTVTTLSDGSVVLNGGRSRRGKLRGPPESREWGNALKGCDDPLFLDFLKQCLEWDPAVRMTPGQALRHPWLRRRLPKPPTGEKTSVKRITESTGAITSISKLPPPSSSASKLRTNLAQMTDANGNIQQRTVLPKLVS
Source text: as §1

EGFR = EGFR (Homo sapiens (Human), UniProt P00533)
Source text: as §1

[1] = target: EGFR(L747-E749del, A750P) (Homo sapiens (Human), UniProt P00533, A750P/DEL747-749)
Source text: as §1

ERK5 = ERK5 (Homo sapiens (Human), UniProt Q13164)
Source text: as §1

FGFR1 = FGFR1 (Homo sapiens (Human), UniProt P11362)
Source text: as §1

FGFR2 = FGFR2 (Homo sapiens (Human), UniProt P21802)
Source text: as §1

FLT3 = FLT3 (Homo sapiens (Human), UniProt P36888)
Source text: as §1

GSK3A = GSK3A (Homo sapiens (Human), UniProt P49840)
Source text: as §1

HASPIN = HASPIN (Homo sapiens (Human), UniProt Q8TF76)
HASPIN, sequence (Q8TF76 whole entry): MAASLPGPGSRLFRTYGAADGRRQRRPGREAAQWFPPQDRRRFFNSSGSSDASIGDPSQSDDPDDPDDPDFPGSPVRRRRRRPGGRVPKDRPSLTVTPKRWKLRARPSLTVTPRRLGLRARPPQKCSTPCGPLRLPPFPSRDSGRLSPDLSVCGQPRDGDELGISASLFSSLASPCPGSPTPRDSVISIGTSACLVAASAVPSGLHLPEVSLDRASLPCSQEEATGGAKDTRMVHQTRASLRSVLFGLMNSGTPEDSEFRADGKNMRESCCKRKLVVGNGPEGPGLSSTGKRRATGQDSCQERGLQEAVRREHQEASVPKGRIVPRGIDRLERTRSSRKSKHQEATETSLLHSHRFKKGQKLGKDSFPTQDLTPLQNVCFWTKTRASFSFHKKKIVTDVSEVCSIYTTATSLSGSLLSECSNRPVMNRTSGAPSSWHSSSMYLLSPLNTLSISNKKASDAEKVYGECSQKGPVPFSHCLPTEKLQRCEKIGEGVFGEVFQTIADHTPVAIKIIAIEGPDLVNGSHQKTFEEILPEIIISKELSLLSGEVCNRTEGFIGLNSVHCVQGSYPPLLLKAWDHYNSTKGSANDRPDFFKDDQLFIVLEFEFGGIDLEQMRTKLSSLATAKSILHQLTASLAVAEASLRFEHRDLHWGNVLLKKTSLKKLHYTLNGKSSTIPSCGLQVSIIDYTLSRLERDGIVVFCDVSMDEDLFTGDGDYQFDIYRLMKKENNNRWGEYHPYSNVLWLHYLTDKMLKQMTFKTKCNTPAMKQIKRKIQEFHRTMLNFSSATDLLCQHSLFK
Source text: as §1

INSRR = INSRR (Homo sapiens (Human), UniProt P14616)
Source text: as §1

LIMK2 = LIMK2 (Homo sapiens (Human), UniProt P53671)
Source text: as §1

MAP4K3 = MAP4K3 (Homo sapiens (Human), UniProt Q8IVH8)
MAP4K3, sequence (Q8IVH8 whole entry): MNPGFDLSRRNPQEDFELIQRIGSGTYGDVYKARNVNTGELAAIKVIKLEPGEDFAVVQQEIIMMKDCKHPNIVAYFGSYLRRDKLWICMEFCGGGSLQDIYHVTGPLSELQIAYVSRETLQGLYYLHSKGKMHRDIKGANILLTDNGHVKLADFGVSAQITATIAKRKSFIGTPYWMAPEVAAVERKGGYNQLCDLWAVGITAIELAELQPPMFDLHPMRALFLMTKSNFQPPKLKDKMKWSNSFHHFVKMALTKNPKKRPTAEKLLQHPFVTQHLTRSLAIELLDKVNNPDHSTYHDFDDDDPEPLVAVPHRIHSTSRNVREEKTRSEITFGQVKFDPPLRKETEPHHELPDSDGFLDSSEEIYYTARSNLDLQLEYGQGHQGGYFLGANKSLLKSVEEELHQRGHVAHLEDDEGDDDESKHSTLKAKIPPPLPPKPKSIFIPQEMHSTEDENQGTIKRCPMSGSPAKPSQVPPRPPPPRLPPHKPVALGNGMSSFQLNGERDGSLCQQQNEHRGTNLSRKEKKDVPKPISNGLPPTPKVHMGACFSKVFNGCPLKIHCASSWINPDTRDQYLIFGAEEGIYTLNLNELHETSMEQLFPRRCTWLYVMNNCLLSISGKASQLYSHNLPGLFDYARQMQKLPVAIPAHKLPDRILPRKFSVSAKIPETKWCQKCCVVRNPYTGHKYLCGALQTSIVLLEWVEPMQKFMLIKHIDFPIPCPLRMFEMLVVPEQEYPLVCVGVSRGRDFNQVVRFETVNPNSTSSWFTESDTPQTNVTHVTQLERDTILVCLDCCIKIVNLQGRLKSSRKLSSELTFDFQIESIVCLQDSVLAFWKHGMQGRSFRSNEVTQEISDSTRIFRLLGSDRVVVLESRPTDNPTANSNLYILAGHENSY
Source text: as §1

MEK3 = MEK3 (Homo sapiens (Human), UniProt P46734)
Source text: as §1

MELK = MELK (Homo sapiens (Human), UniProt Q14680)
Source text: as §1

MERTK = MERTK (Homo sapiens (Human), UniProt Q12866)
Source text: as §1

MTOR = MTOR (Homo sapiens (Human), UniProt P42345)
Source text: as §1

NEK11 = NEK11 (Homo sapiens (Human), UniProt Q8NG66)
Source text: as §1

NEK3 = NEK3 (Homo sapiens (Human), UniProt P51956)
Source text: as §1

NLK = NLK (Homo sapiens (Human), UniProt Q9UBE8)
Source text: as §1

PAK6 = PAK6 (Homo sapiens (Human), UniProt Q9NQU5)
Source text: as §1

PYK2 = PYK2 (Homo sapiens (Human), UniProt Q14289)
Source text: as §1

RET(V804M) = RET(V804M) (Homo sapiens (Human), UniProt P07949, V804M)
Source text: as §1

[2] = target: RSK1(Kin.Dom.1-N-terminal) (Homo sapiens (Human), UniProt Q15418)
RSK1(Kin.Dom.1-N-terminal), sequence (Q15418 62-321 limits assumed): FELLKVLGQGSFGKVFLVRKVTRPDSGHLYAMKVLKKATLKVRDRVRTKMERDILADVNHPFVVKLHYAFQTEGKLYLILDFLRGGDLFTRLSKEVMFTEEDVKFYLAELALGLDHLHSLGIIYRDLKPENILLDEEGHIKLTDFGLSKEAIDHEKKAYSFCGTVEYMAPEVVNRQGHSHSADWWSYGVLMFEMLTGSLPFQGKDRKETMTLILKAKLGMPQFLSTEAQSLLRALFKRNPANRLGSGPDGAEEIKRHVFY
Source text: as §1

S6K1 = S6K1 (Homo sapiens (Human), UniProt P23443)
Source text: as §1

SRPK1 = SRPK1 (Homo sapiens (Human), UniProt Q96SB4)
Source text: as §1

SRPK3 = SRPK3 (Homo sapiens (Human), UniProt Q9UPE1)
Source text: as §1

TNNI3K = TNNI3K (Homo sapiens (Human), UniProt Q59H18)
Source text: as §1

ULK3 = ULK3 (Homo sapiens (Human), UniProt Q6PHR2)
Source text: as §1

WEE1 = WEE1 (Homo sapiens (Human), UniProt P30291)
Source text: as §1

YES = YES (Homo sapiens (Human), UniProt P07947)
Source text: as §1

Row | Compound | remaining binding at 1 µM (ADCK3) | remaining binding at 1 µM (ALK(L1196M)) | remaining binding at 1 µM (BUB 1) | remaining binding at 1 µM (CDK4) | remaining binding at 1 µM (CDK7) | remaining binding at 1 µM (CDKL2) | remaining binding at 1 µM (CLK3) | remaining binding at 1 µM (CSF1R) | remaining binding at 1 µM (DAPK1) | remaining binding at 1 µM (DCAMKL1) | remaining binding at 1 µM (DYRK2) | remaining binding at 1 µM (EGFR) | remaining binding at 1 µM [1] | remaining binding at 1 µM (ERK5) | remaining binding at 1 µM (FGFR1) | remaining binding at 1 µM (FGFR2) | remaining binding at 1 µM (FLT3) | remaining binding at 1 µM (GSK3A) | remaining binding at 1 µM (HASPIN) | remaining binding at 1 µM (INSRR) | further results
1 | CCN1CCN(Cc2ccc(Nc3nc4ccc(Oc5ccnc(NC(C)=O)c5)c(C)c4n3C)cc2C(F)(F)F)CC1 [Compound I-6, N-(4-(2-(4-((4-ethylpiperazin-1-yl)methyl)-3-(trifluoromethyl)phenylamino)-1,7-dimethyl-1H-benzo[d]imidazol-6-yloxy)pyridin-2-yl)acetamide] | 100% | 51% | 100% | 92% | 15% | 0.5% | 95% | 0.35% | 99% | 69% | 97% | 100% | 100% | 88% | 75% | 82% | 1% | 93% | 93% | 5.8% | remaining binding at 1 µM (LIMK2): 88%; remaining binding at 1 µM (MAP4K3): 74%; remaining binding at 1 µM (MEK3): 87%; remaining binding at 1 µM (MELK): 93%; remaining binding at 1 µM (MERTK): 59%; remaining binding at 1 µM (MTOR): 100%; remaining binding at 1 µM (NEK11): 61%; remaining binding at 1 µM (NEK3): 92%; remaining binding at 1 µM (NLK): 40%; remaining binding at 1 µM (PAK6): 90%; remaining binding at 1 µM (PYK2): 8.8%; remaining binding at 1 µM (RET(V804M)): 4.5%; remaining binding at 1 µM [2]: 99%; remaining binding at 1 µM (S6K1): 84%; remaining binding at 1 µM (SRPK1): 83%; remaining binding at 1 µM (SRPK3): 87%; remaining binding at 1 µM (TNNI3K): 51%; remaining binding at 1 µM (ULK3): 79%; remaining binding at 1 µM (WEE1): 100%; remaining binding at 1 µM (YES): 84%
2 | CCN1CCN(Cc2ccc(Nc3nc4ccc(Oc5ccnc(NC(C)=O)c5)cc4n3C)cc2C(F)(F)F)CC1 [Compound I-2] | 85% | 78% | 100% | 94% | 45% | 1.9% | 94% | 0.1% | 87% | 91% | 83% | 79% | 66% | 89% | 86% | 100% | 15% | 85% | 100% | 5.3% | remaining binding at 1 µM (LIMK2): 100%; remaining binding at 1 µM (MAP4K3): 71%; remaining binding at 1 µM (MEK3): 57%; remaining binding at 1 µM (MELK): 83%; remaining binding at 1 µM (MERTK): 32%; remaining binding at 1 µM (MTOR): 100%; remaining binding at 1 µM (NEK11): 100%; remaining binding at 1 µM (NEK3): 77%; remaining binding at 1 µM (NLK): 84%; remaining binding at 1 µM (PAK6): 93%; remaining binding at 1 µM (PYK2): 33%; remaining binding at 1 µM (RET(V804M)): 9.9%; remaining binding at 1 µM [2]: 100%; remaining binding at 1 µM (S6K1): 82%; remaining binding at 1 µM (SRPK1): 50%; remaining binding at 1 µM (SRPK3): 100%; remaining binding at 1 µM (TNNI3K): 23%; remaining binding at 1 µM (ULK3): 92%; remaining binding at 1 µM (WEE1): 95%; remaining binding at 1 µM (YES): 82%
